Results reported in US12281329B2, “Compositions and methods for immune cell modulation in adoptive immunotherapies” (Fate Therapeutics, Inc., priority 2016, dated 2025).
Counter-ions that a name gives are not always drawn.

Experiments:
T cells = assay: In vitro T cell culture compound screen, flow cytometry for CCR7+CD62L+ cells; type: cell-based, human; settings: for CD8 Hit / CD4 Hit: 10 μM, about 6 days, anti-CD3/anti-CD28 beads, viability and cell number Z-score > −1; for CD8 Hit: hit: Z-score > +2 for percent or relative number CCR7+CD62L+ in viable CD8+; for CD4 Hit: hit: Z-score > +2 for percent or relative number CCR7+CD62L+ in viable CD4+
Description: In Vitro T Cell Culture. Fresh leukopaks (AllCells, Alameda, CA) were obtained from healthy donors, from which T cells were negatively selected using the EasySep Human T cell Enrichment Kit (Stem Cell Technologies, Vancouver, Canada). The freshly isolated T cells were aliquoted and cryopreserved. On the day the screens were initiated, T cells were thawed and washed into X-Vivo 15 with 5% human AB serum, IL-2, pen/strep, and additional supplements. Cells were dispensed into flat-bottom 384-well plates at 5×10^5 cells/ml with anti-CD3/Anti-CD28 dynabeads (ThermoFisher, Waltham, MA) at a 3:1 bead-to-cell ratio. Individual compounds were added at a final concentration of 10 μM to each well from column 3 to column 22 of each plate. Positive and negative controls were added to additional wells. Cells were incubated for about 6 days at 37 degrees with 5% CO2.
Flow Cytometry. On Day 6 of culture, cells were stained with a fixable viability marker and fluorophore-conjugated antibodies: CD3, CD4, CD8, CD45RA, CD45RO, CD62L, CCR7, CD27, and CD122 (BD Biosciences, San Jose, CA; and BioLegend, San Diego, CA). Fluorescent absolute counting beads (Spherotech, Lake Forest, IL) were added just prior to acquisition. Data acquisition was performed on a BD Fortessa X-20 (BD Biosciences) and data were analyzed using Treestar software (FlowJo, Ashland, OR) and Spotfire (Tibco, Boston, MA).
These cells are characterized by expression of CCR7 and CD62L. Therefore, cells co-expressing both of these identifying markers were evaluated. Within the viable CD4+ population and viable CD8+ population, the percent of cells co-expressing CCR7 and CD62L was determined. The expression of either CD62L or CCR7 on T cells, as indicative of the desired T cell subsets, have been described as having favorable functional characteristics for CAR-T cell therapy, and potentially other adoptive T cell therapies.
The number of events in each of these gates relative to the number of absolute counting beads in each sample was calculated, defining a relative measure of the absolute number of naïve, stem cell memory, or central memory T cells within the CD4+ and/or CD8+ populations. A z-Score relative to the screened compound samples within each 384-well plate was calculated for each of these four values: 1) percent CCR7+CD62L+ in CD4+, 2) percent CCR7+CD62L+ in CD8+, 3) absolute relative number of CCR7+CD62L+ in CD4+, and 4) absolute relative number of CCR7+CD62L+ in CD8+(FIGS. 1A and 1B). Z-scores were also calculated for the percent viability of all cells within each sample and the relative absolute number of cells within each sample. A “Z-Score” is a statistical measurement of a score's relationship to the mean in a group of scores. AZ-score of 0 means the score is the same as the mean. AZ-score can also be positive or negative, indicating whether it is above or below the mean and by how many standard deviations.

K562 cells = assay: NK cell cytotoxicity assay, K562 target cells; type: cell-based; settings: 4 hours; NK cells overnight 10 ng/mL IL-15 only or 7 day IL-15 + 5 μM CHIR99021
Procedure: (§1) NK Cell Cytotoxicity Assay: Cytotoxicity was determined using a flow cytometry based method based on a previously published method (Kim, et al. J Immunol Methods. 2007 Aug. 31; 325(1-2): 51-66). NK cells were co-cultured with e450-proliferation dye-labelled targets for 4 hours. CellEvent™ Caspase-3/7 Green Flow Cytometry Assay Kit (Lifer Technologies) was used to assay for cell death among target cells, and samples were read on a BD LSRFortessa cytometer. Killing of SKOV-3 targets was quantified using the Incucyte Zoom instrument. SKOV-3 cells were transiently transduced with NucLight-Red BacMam reagent (Essen Biosciences) and co-cultured with the indicated NK cell populations for 74 hours, with images taken on two hour intervals. Caspase 3/7 activity was monitored to indicate target cells undergoing apoptosis using the CellEvent™ Caspase-3/7 Green Detection Reagent. The number of target cells was normalized to SKOV-3 cells cultured alone, and targets undergoing apoptosis were quantified based on caspase 3/7 activity.
The ability of GSK3 inhibition to enhance cytotoxicity of NK cells isolated directly from donors was assessed using in vitro killing assays. […] depleted PBMC population was treated overnight with 10 ng/mL IL-15 only (primed), or a 7 day culture combination of 10 ng/mL IL-15 and 5 μM CHIR99021. The target cells for the killing assays included K562 cells, CD20+ Raji cells, HER2+ SKOV3 cells and HER2+A549 cells. The E:T (Effector:Target) ratio applied to each assay ranged from 0.1, 0.5, 1, 5 to 10. After the target cells were incubated with the differently treated NK cells for 4 hours, the respective percentage of specific killing (target cell lysis) was calculated. […] Raji cells are less prone to NK mediated cytotoxicity.
The ability of STING agonist to enhance cytotoxicity of GSK3i multiday modulated NK cells was assessed using in vitro killing assays. […]

CD20+ Raji cells = assay: NK cell cytotoxicity assay, Raji target cells; type: cell-based, human; settings: 4 hours; NK cells overnight IL-15 only or 7 days IL15 + GSK3i
Procedure: as §1
The ability of GSK3 inhibition to enhance cytotoxicity of NK cells isolated directly from donors was assessed using in vitro killing assays. […] After the target cells were incubated with the differently treated NK cells for 4 hours, the respective percentage of specific killing (target cell lysis) was calculated. […]

[1] = at least in viable CD8+ population
[2] = in both viable CD4+ population and viable CD8+ population

Compound: 2-Naphthacenecarboxamide, 7-chloro-4-(dimethylamino)-1,4,4a,5,5a,6,11,12a-octahy
- CD8 Hit (T cells): CD8
- number or ratio of cells co-expressing CCR7 and CD62L (T cells; [1]): increased

Compound: CCC(CO)Nc1nc(NCc2ccccc2)c2ncn(C(C)C)c2n1 (stereo in doubt) [Roscovitine, (S)-Isomer]
- CD4 Hit (T cells): CD4
- number or ratio of cells co-expressing CCR7 and CD62L (T cells; [1]): increased

Compound: CCCc1c(-c2ccc(O)cc2)nn(-c2ccc(O)cc2)c1-c1ccc(O)cc1 [1,3,5-tris(4-hydroxyphenyl)-4-propyl-1H-pyrazole]
- CD4 Hit (T cells): CD4
- number or ratio of cells co-expressing CCR7 and CD62L (T cells; [1]): increased

Compound: N.S=C(S)N1CCCC1 [1-Pyrrolidinecarbodithioic acid, ammonium salt]
- CD4 Hit (T cells): CD4
- number or ratio of cells co-expressing CCR7 and CD62L (T cells; [1]): increased

Compound: Nc1ncn([C@@H]2O[C@H](CO)[C@@H](O)[C@H]2O)c(=O)n1 [5-Azacytidine]
- CD4 Hit (T cells): CD4
- CD8 Hit (T cells): CD8
- number or ratio of cells co-expressing CCR7 and CD62L (T cells; [2]): increased

Compound: Sc1ncnc2nc[nH]c12 [6-Mercaptopurine]
- CD4 Hit (T cells): CD4
- CD8 Hit (T cells): CD8
- number or ratio of cells co-expressing CCR7 and CD62L (T cells; [2]): increased

Compound: Oc1c(Cl)cc(Cl)c2cccnc12 [8-Quinolinol, 5,7-dichloro-]
- CD4 Hit (T cells): CD4
- CD8 Hit (T cells): CD8
- number or ratio of cells co-expressing CCR7 and CD62L (T cells; [2]): increased

Compound: Oc1c(I)cc(Cl)c2cccnc12 [8-Quinolinol, 5-chloro-7-iodo-]
- CD4 Hit (T cells): CD4
- CD8 Hit (T cells): CD8
- number or ratio of cells co-expressing CCR7 and CD62L (T cells; [2]): increased

Compound: CC[n+]1c(/C=C/C=C2/N(C)c3ccccc3C2(C)C)sc2ccccc21.[I-] [AC-93253 iodide]
- CD4 Hit (T cells): CD4
- CD8 Hit (T cells): CD8
- number or ratio of cells co-expressing CCR7 and CD62L (T cells; [2]): increased

Compound: COc1ccc(-c2cc3nccn3c(Nc3ncccc3C(N)=O)n2)cc1OC [BAY 61-3606]
- CD4 Hit (T cells): CD4
- number or ratio of cells co-expressing CCR7 and CD62L (T cells; [1]): increased

Compound: COc1cc2nc(N3CCCN(C)CC3)nc(NC3CCN(Cc4ccccc4)CC3)c2cc1OC [BIX01294]
- CD4 Hit (T cells): CD4
- number or ratio of cells co-expressing CCR7 and CD62L (T cells; [1]): increased

Compound: CC[N+](C)(C)c1cccc(O)c1 [Edrophonium chloride]
- CD8 Hit (T cells): CD8
- number or ratio of cells co-expressing CCR7 and CD62L (T cells; [1]): increased

Compound: C[C@]12CC[C@@H]3c4ccc(O)cc4C[C@@H](CCCCCCCCC[S+]([O-])CCCC(F)(F)C(F)(F)F)[C@H]3[C@@H]1CC[C@@H]2O (stereo partly shown) [Fulvestrant]
- CD8 Hit (T cells): CD8
- number or ratio of cells co-expressing CCR7 and CD62L (T cells; [1]): increased

Compound: CC(C)C1CCC2(CO2)C2C(=O)OCC(C(=O)O)=CC12 (stereo not shown) [Heptelidic acid]
- CD4 Hit (T cells): CD4
- CD8 Hit (T cells): CD8
- number or ratio of cells co-expressing CCR7 and CD62L (T cells; [2]): increased

Compound: O=C(N/N=C/c1ccc([N+](=O)[O-])o1)c1ccc(O)cc1 [Nifuroxazide]
- CD8 Hit (T cells): CD8
- number or ratio of cells co-expressing CCR7 and CD62L (T cells; [1]): increased

Compound: C=CCc1cccc(/C=N/NC(=O)CN2CCN(Cc3ccccc3)CC2)c1O [PAC-1]
- CD4 Hit (T cells): CD4
- number or ratio of cells co-expressing CCR7 and CD62L (T cells; [1]): increased

Compound: Oc1cccc(-c2nc(N3CCOCC3)c3oc4ncccc4c3n2)c1 [PI-103]
- CD4 Hit (T cells): CD4
- CD8 Hit (T cells): CD8

Compound: C=CC1=C(C)c2cc3[nH]c(cc4nc(cc5[nH]c(cc1n2)c(C)c5CCC(=O)O)C(CCC(=O)O)=C4C)c(C)c3C=C [Protoporphyrin IX disodium]
- CD4 Hit (T cells): CD4
- number or ratio of cells co-expressing CCR7 and CD62L (T cells; [1]): increased

Compound: CN(C)c1ccc(C=C2C(=O)Nc3ccccc32)cc1 [SU 4312]
- CD8 Hit (T cells): CD8
- number or ratio of cells co-expressing CCR7 and CD62L (T cells; [1]): increased

Compound: CN[C@H]1CC[C@@H](c2ccc(Cl)c(Cl)c2)c2ccccc21 [Sertraline]
- CD4 Hit (T cells): CD4
- CD8 Hit (T cells): CD8

Compound: CCCc1nc2c(C)cc(-c3nc4ccccc4n3C)cc2n1Cc1ccc(-c2ccccc2C(=O)O)cc1 [Telmisartan]
- CD4 Hit (T cells): CD4
- number or ratio of cells co-expressing CCR7 and CD62L (T cells; [1]): increased

Compound: CC(C)(C)c1ccc(C(O)CCCN2CCC(C(O)(c3ccccc3)c3ccccc3)CC2)cc1 (stereo not shown) [Terfenadine]
- CD4 Hit (T cells): CD4
- number or ratio of cells co-expressing CCR7 and CD62L (T cells; [1]): increased

Compound: C/C=C(/C)C(=O)O[C@H]1C(C)=C2[C@H]([C@@H]1OC(=O)CCCCCCC)[C@@](C)(OC(C)=O)C[C@H](OC(=O)CCC)[C@@]1(O)[C@H]2OC(=O)[C@@]1(C)O [Thapsigargin]
- CD8 Hit (T cells): CD8
- number or ratio of cells co-expressing CCR7 and CD62L (T cells; [1]): increased

Compound: O=C(O)Cc1cc(I)c(Oc2ccc(O)c(I)c2)c(I)c1 [Tiratricol]
- CD4 Hit (T cells): CD4
- CD8 Hit (T cells): CD8
- number or ratio of cells co-expressing CCR7 and CD62L (T cells; [2]): increased

Compound: NC1CCN(c2nc3c(cc2F)c(=O)c(C(=O)O)cn3-c2ccc(F)cc2F)C1 (stereo not shown) [Tosufloxacin hydrochloride]
- CD4 Hit (T cells): CD4
- number or ratio of cells co-expressing CCR7 and CD62L (T cells; [1]): increased

Compound: N#CC(=C(/N)Sc1ccccc1N)/C(C#N)=C(\N)Sc1ccccc1N [U0126]
- CD4 Hit (T cells): CD4
- number or ratio of cells co-expressing CCR7 and CD62L (T cells; [1]): increased

Compound: Diethylenetriaminepentaacetic acid, penta sodium
- CD4 Hit (T cells): CD4
- CD8 Hit (T cells): CD8
- number or ratio of cells co-expressing CCR7 and CD62L (T cells; [2]): increased

Compound: IL15: recombinant human IL-15, cytokine used alone as comparator culture (10 ng/mL)
- E:T50 (E:T ratio when there is 50% of target cell lysis), K562 killing assay (K562 cells): about 10
- E:T50, Raji cells (CD20+ Raji cells): ~100
